Assay results published in US4409240A, “Derivatives of dihydroxybenzoic acid and pharmaceutical composition thereof” (Kureha Kagaku Kogyo Kabushiki Kaisha, priority 1981, dated 1983).

Experiments:
in vivo = details: mouse, in vivo, po
Source text: (§1) Acute toxicity was examined by administering perorally an aqueous solution of each Specimen to female JCL-ICR mouse of 5 to 6 weeks after birth. As the Specimen, trans-4-[N-(3',4'-dihydroxybenzoyl)aminomethyl]cyclohexane-1-carboxylic acid, 4-[N-(3',4'-dihydroxybenzoyl)amino]benzoic acid and 6-[N-(3',4'-dihydroxybenzoyl)amino]caproic acid were used.

female JCL-ICR mouse = experiment: Acute toxicity; details: peroral, aqueous solution, female JCL-ICR mouse 5 to 6 weeks
Source text: as §1

[1] = system: platelet aggregation (rabbit platelet rich plasma); experiment: Inhibitory effect on platelet aggregation (induced by sodium arachidonate); type: cell-based; details: Oryctolagus cuniculus, average value, 1.5 mM of each Specimen, rabbit PRP, preincubated 37° C. 5 min, read-out: Inhibition rate of platelet aggregation
Protocol: Rabbit platelet rich plasma (PRP) was used for Aggregation Tests. PRP was prepared by centrifugation of blood collected from the ear vein of Rabbit and diluted into number-concentration 300,000/μl with platelet poor plasma. Platelet aggregation was induced by Sodium Arachidonate and monitored (measured) with a four channel platelet aggregation Tracer PAT-4A (Niko Bioscience Co., Japan). Aggregation Tracer tube containing 230 μl PRP was preincubated at 37° C. for 5 min with each Specimen.

[2] = system: polynuclear leukocyte migration; experiment: Inhibitory effect on polynuclear leukocyte migration (Granuloma CMC pouch method); type: in vivo, rat (male, Donyru); details: average value; 100 mg p.o./kg body weight; 6 hours after the administration; rat CMC pouch
Protocol: After shearing the rat on the dorsum about 5 cm in diameter, 5 ml of air was hypodermically injected into the site to form a pouch. After 24 hours, 5 ml of aqueous 2% (w/v) solution of CMC sodium salt at 37° C. was injected into the pouch, and at the same time an aqueous solution of each Specimen was administered perorally to the rat.
After the injection of CMC, the liquid in the pouch was collected as the time passed by in an amount of 0.5 ml and stained. Then the number of polynuclear leukocyte migrated into the pouch was counted.

adjuvant arthritis = experiment: Prophylactic effect on adjuvant arthritis; type: in vivo, rat (female JCL-SD); details: average value of prophylactic rate; 100 mg p.o./kg/day for continuous 14 days; rat
Protocol: Freund's complete adjuvant (0.6 mg/0.1 ml) was inoculated into the right hind paw of the etherized rat. After palinesthesia, each specimen was administered perorally once a day for 14 continuous days.

Row | Structure (SMILES) | LD50 (in vivo) [mg/kg] | abnormality on the mouse (female JCL-ICR mouse) | inhibition at 1500 µM [1] [%] | Inhibition rate of polynuclear leukocyte migration [2] [%] | Prophylactic effect on adjuvant arthritis (adjuvant arthritis) [%]
1 | O=C(O)c1ccc(NC(=O)c2ccc(O)c(O)c2)cc1 [4-[N-(3',4'-dihydroxybenzoyl)amino]benzoic acid] | > 3000 | no abnormality on the mouse was found | – | – | –
2 | O=C(O)CCCCCNC(=O)c1ccc(O)c(O)c1 [6-[N-(3',4'-dihydroxybenzoyl)amino]caproic acid] | > 3000 | no abnormality on the mouse was found | – | – | –
3 | O=C(NC[C@H]1CC[C@H](C(=O)O)CC1)c1ccccc1O.[Na] [Sodium trans-4-(N-salicyloyl-aminomethyl)cyclohexane-1-carboxylic acid, reference compound] | – | – | 10 | 5 | 5
4 | O=C(NC[C@H]1CC[C@H](C(=O)O)CC1)c1ccc(O)c(O)c1 [trans-4-[N-(3',4'-dihydroxybenzoyl)aminomethyl]cyclohexane-1-carboxylic acid] | > 3000 | no abnormality on the mouse was found | 100 | 35 | 30
